Assay results taken from patent publication US20050059610A1 (priority 2003, published 2005).

Key:
[1] = system: myocardial ischemia/reperfusion injury
[2] = system: experimental SIRS (CLP); experiment: Serum HSP72 (ELISA) and survival after CLP (experimental SIRS); assay type: in vivo, Sprague-Dawley rats
[3] = system: heatstroke; experiment: Experimental heatstroke in the rat, oral GLN; assay type: in vivo, Sprague-Dawley Rats
Experimental: Heatstroke was performed in anesthetized rats (ketamine/xylazine) by heating animals to 42 deg C. (rectal temperature) for 30 minutes. Survival was analyzed for five days post-heatstroke. In a separate set of animals, HSP 70 and Heat Shock Factor-1 activation (HSF-1) were analyzed at 1-hour and 24-hours post-heatstroke in heart and lung tissue via western blot (n=10/group). Statistical analysis was performed via Fischer's Exact Test for survival and ANOVA with Duncan grouping as post-hoc test for HSP-70 and HSF-1 expression.

[4] = system: polymicrobial sepsis (CLP); experiment: Cecal ligation and puncture (CLP): lung and heart tissue metabolism by MRS, survival; assay type: in vivo, Sprague-Dawley rats
Experimental: Survival was monitored for five days. In a separate group of animals (n=4/group), lung and heart tissue was harvested 24 hours post-CLP and tissue metabolism was analyzed by ^1H-MRS and ^31P-MRS.

[5] = system: cardiomyocytes; experiment: Ischemia/reperfusion injury of isolated cardiomyocytes; assay type: cell-based
Experimental: Spontaneously contracting cardiomyocytes were studied.
Cardiomyocytes were allowed to equilibrate at baseline normoxic conditions for 60 minutes.

[6] = system: onset of ischemia (1 mm of ST depression); experiment: Exercise stress test in patients with chronic stable angina, crossover trial; assay type: in vivo, human; details: oral GLN 80 mg/kg 40 minutes prior to exercise stress test; 17 patients; vs placebo
From the text: Patients were then crossed over following a one-week interval.

[7] = system: infection in patients following bone marrow transplantation; details: parenteral nutritional program supplemented with glutamine (Calder and Yapoob 1999); cited from earlier work
[8] = system: serum HSP 70; experiment: Serum HSP-70 levels in critically ill patients (surgical ICU), GLN vs control; assay type: in vivo, human; details: for Baseline HSP-70 / LN(Baseline HSP-70): before treatment
[9] = five days of oral GLN prior to heatstroke
[10] = non-pancreatic diagnoses, n = 7

SMILES: NC(=O)CC[C@H](N)C(=O)O [GLN, Glutamine]
- recovery of cardiac flow following reperfusion ([1]; 0.75 g/kg alanine-glutamine (0.52 g/kg glutamine) IP 18 hours prior, pre-load 8 and 12 mmHg): significantly improved
- percent recovery of coronary flow ([1]; 60 minutes following reperfusion, 0.52 g/kg GLN 18 hours prior): significantly enhanced
- post-I/R cardiac output ([1]; single dose 18 hours prior to 15 minutes of no flow ischemia): significant improvement
- survival following experimental SIRS ([2]; 5 days, BSS 18%): 61%
- sHSP72 vs. BSS (ELISA) ([2]; GLN (given as ALA-GLN) 0.75 g/Kg 1 hour post-CLP, 6 hours post-CLP): significantly enhanced
- HSF-1 activation ([3]; 1-hour and 24-hours post-heatstroke): No change
- HSP 70 expression in heart and lung tissue ([3]; 1 hour post-heatstroke, versus unheated animals and heated controls): significantly enhanced
- HSP 70 between GLN and control animals ([3]; 24 hours post-heatstroke): no significant difference
- mortality following heatstroke ([3]; GLN 0.65 g/kg gavage twice a day for five days, 42 deg C. for 30 minutes, control 62.5%): 12.5%
- HSP 70 expression in heart, lung, and colon tissue [3, 9]: enhanced
- mortality from lethal heatstroke (in words) [3, 9]: significantly reduced
- fall in lung tissue Creatine/phosphocreatine ([4]; 24 hours post-CLP): significantly attenuated
- fall in lung tissue glucose ([4]; 24 hours post-CLP): significantly attenuated
- fall in lung tissue glutamine ([4]; 24 hours post-CLP): significantly attenuated
- lung lactate accumulation ([4]; 24 hours post-CLP, p<0.06): trend towards a decrease
- five day mortality rate post-CLP ([4]; GLN 0.75 g/Kg one hour post surgery): 78%
- NAD+ content in lung and heart tissue following CLP ([4]; GLN 0.75 g/Kg one hour post surgery, 24 hours post-CLP): significant improvement
- HSP 72 content (western blot) vs cells not receiving GLN ([5]; 10 mM GLN): significant increase
- return of contractile function following I/R injury ([5]; 10 mM GLN): significantly enhanced
- cell death from ischemia/reperfusion ([5]; 10 mM GLN one hour before and throughout ischemia and reperfusion, control 48%): 22%
- onset of ST depression [6]: significant delay
- level of infection [7]: lower level of infection
- HSP-70 levels at 1-week, higher than control patients by ([8]; 95% CI −0.01 to 5.64, p=0.050): 2.82 units
- change in HSP-70 levels from baseline to 1-week, greater than control patients by ([8]; 95% CI −0.09 to 5.29, p=0.057): 2.60 units
- 1-week HSP-70 ([8]; all diagnoses, n = 15): 4.09 ± 4.70
- HSP-70 change from baseline ([8]; all diagnoses, n = 15): 3.48 ± 4.53
- LN(1-week HSP-70) ([8]; all diagnoses, n = 15): 0.56 ± 1.63
- LN(1-wk HSP/Baseline HSP) ([8]; all diagnoses, n = 15): 1.93 ± 1.23
- Baseline HSP-70 ([8]; all diagnoses, n = 15): 0.61 ± 1.05
- LN(Baseline HSP-70) ([8]; all diagnoses, n = 15): −1.37 ± 1.26
- enhancement of serum HSP levels versus iso-nitrogenous control solution ([8]; intravenous GLN, mixed critically ill patients, surgical ICU): four-fold enhancement
- 1-week HSP-70 [8, 10]: 3.43 ± 5.17
- HSP-70 change from baseline [8, 10]: 2.60 ± 4.77
- LN(1-week HSP-70) [8, 10]: 0.20 ± 1.70
- LN(1-wk HSP/Baseline HSP) [8, 10]: 1.63 ± 1.21
- Baseline HSP-70 [8, 10]: 0.83 ± 1.48
- LN(Baseline HSP-70) [8, 10]: −1.43 ± 1.58
